Measured values: paper PMC2923755, “Thermolability of mutant MMACHC protein in the vitamin B12-responsive cblC disorder” (Molecular Genetics and Metabolism, 2010)
Positions count from the first letter of the chain named. In names and notes the source's numbering stands. Several values for one entry are separate records, joined by “and”; a condition that tells them apart may be missing. Equal values may be shown once.

T1: His-MMACHC-wt (Homo sapiens, UniProt Q9Y4U1)
T1 construct: made in house; host or cells: E. coli BL21 DE3
T1 sequence (Q9Y4U1 1-282): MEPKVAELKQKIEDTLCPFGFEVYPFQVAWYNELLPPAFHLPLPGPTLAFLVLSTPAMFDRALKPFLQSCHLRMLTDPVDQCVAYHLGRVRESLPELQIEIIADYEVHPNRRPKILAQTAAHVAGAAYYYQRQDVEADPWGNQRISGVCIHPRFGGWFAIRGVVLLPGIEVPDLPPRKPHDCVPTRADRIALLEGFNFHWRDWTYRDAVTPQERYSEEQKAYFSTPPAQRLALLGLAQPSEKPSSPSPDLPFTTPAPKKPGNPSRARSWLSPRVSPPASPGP

T2: GST-MMACHC-wt (Homo sapiens, UniProt Q9Y4U1)
T2 construct: made in house
T2 sequence (Q9Y4U1 1-282): T1 sequence (Q9Y4U1 1-282)

T3: MMACHC-wt (Homo sapiens, UniProt Q9Y4U1)
T3 construct: His-tag (N, cleaved yes); made in house; host or cells: E. coli BL21 DE3
T3 sequence (Q9Y4U1 1-282): T1 sequence (Q9Y4U1 1-282)

T4: MMACHC-R161Q (Homo sapiens, UniProt Q9Y4U1, R161Q)
T4 construct: His-tag (N, cleaved yes); made in house; host or cells: E. coli BL21 DE3
T4 sequence (Q9Y4U1 1-282 R161Q): T1 sequence (Q9Y4U1 1-282) with R161Q

T5: His-MMACHC-R161Q (Homo sapiens, UniProt Q9Y4U1, R161Q)
T5 construct: made in house; host or cells: E. coli BL21 DE3
T5 sequence (Q9Y4U1 1-282 R161Q): T1 sequence (Q9Y4U1 1-282) with R161Q

B1: MMACHC-wt: recombinant wild-type MMACHC protein, His-tag removed by TEV (protein, UniProt Q9Y4U1 1-282, looked up)
Cyanocobalamin reductase / …: T1 sequence (Q9Y4U1 1-282)
B2: MMACHC-R161Q: recombinant MMACHC protein carrying the late-onset cblC mutation R161Q, His-tag removed (protein, UniProt Q9Y4U1 1-282, looked up, variant R161Q)
Cyanocobalamin reductase / …: T1 sequence (Q9Y4U1 1-282) with R161Q

Columns and labels:
[1] = biological target: T1, His-MMACHC-wt; design: method as in PMID 18779575; settings: cited from earlier work
[2] = biological target: T2, GST-MMACHC-wt; assay: UV-visible absorption spectra, base-on/base-off binding; settings: 5 μM cobalamin, 50 μM protein, pH 7.0; for α/β-Peak: nm
Procedure: (§1) To determine base-on or base-off binding, 5 μM of the appropriate cobalamin or cobinamde in buffer (100 mM Tris, pH 7.0), was incubated in the dark with 400 μl total of 50 μM MMACHC protein (wild-type or R161Q), prepared in the same buffer, or alone, for 5 min at room temperature. In order to retain the high amounts of protein necessary for these experiments, the His-tag (wt and R161Q) or GST-tag (wt protein) was left on. Absorption spectrum measurements were carried out using a MOS-250 spectrometer and recorded using Bio-Kine 32 v4.20 software.
(§2) In order to determine whether the R161Q mutation interferes with the ability of MMACHC to support this transition, we examined the UV–visible absorption spectra for the proteins bound to AdoCbl, as an example of an alkylcobalamin, as well as for the proteins bound to CNCbl and OHCbl. Each cobalamin was added at a concentration of […] (Fig. 5). To determine whether the cobalamin was base-on or base-off, in the case of CNCbl both base-on and base-off spectra were determined for the free vitamin, as previously reported [[12,14]]. […] Confirming our earlier data, GST-tagged MMACHC-wt bound CNCbl in the base-off state (Table 2). […] Both MMACHC-wt and MMACHC-R161Q bound AdoCbl in the base-off state (Fig. 5; Table 2). […] Finally, neither MMACHC-wt nor MMACHC-R161Q modified OHCbl binding, which retained the base-on profile regardless of the MMACHC species present (Fig. 5; Table 2).

[3] = biological target: T1, His-MMACHC-wt; assay: as above; settings: 5 μM cobalamin, 50 μM protein, pH 7.0; for α/β-Peak: nm
Procedure: as §1, §2

[4] = UV-visible absorption spectra of free cobalamin; type: physicochemical; settings: base-on; for α/β-Peak: nm
Procedure: as §1, §2

[5] = biological target: T3, MMACHC-wt; assay: Differential scanning fluorimetry (DSF), stabilization by cobalamins; type: binding; settings: for ΔTm max: Tm at 50 μM ligand minus Tm at 0 μM ligand; for AC50: half-maximal effective ligand concentration for stabilization, 3 μM protein, fit of ΔTm vs ligand concentration
Procedure: (§3) DSF was performed and analyzed as described in Niesen et al., with minor modifications. Purified MMACHC proteins were diluted to 0.1 mg/ml (3 μM) in buffer (10 mM HEPES pH 7.5, 0.5 M NaCl, 5% glycerol) with 1:1000 Sypro Orange (Invitrogen) and run in triplicate. The proteins were heated from 5 to 75 °C with a ramp rate of 1 °C/min in a thermocycler (Bio-rad C1000 Thermocycler, CFX96 Real-time system). All graphs were normalized so that minimum fluorescence was set to 0 and maximum fluorescence set to 1. […] Final graphs and AC50’s were generated using Kadeidagraph 4.0 software (Synergy Software, Reading, PA). AC50’s were determined by fitting the ΔTm vs. ligand concentration curves to the equation ΔTm = ΔTm max[S]/(AC50 + [S]) where ΔTm is the change in melting temperature (Tm[protein + ligand] − Tm[protein]), ΔTm max is the maximal change in Tm at saturating (50 μM) ligand concentration and [S] is the ligand concentration.
(§4) Wild-type (MMACHC-wt) and mutant (MMACHC-R161Q) MMACHC were expressed and purified to >95% purity, with His-tag removed, as judged by SDS–PAGE (Fig. 2A). In order to investigate the thermostability of MMACHC we used DSF, a method that measures protein stability and ligand-induced changes in stability [[20,21]]. DSF uses an environmentally sensitive dye, such as Sypro orange, to monitor protein-unfolding caused by heat denaturation. As the protein unfolds, the dye, which has a higher fluorescence quantum yield in nonpolar environments than in aqueous media, binds to hydrophobic regions of the protein, causing a large increase in fluorescence [[22,23]]. Protein stability is expressed as the melting point of the protein (Tm), that is, the transition midpoint of the fluorescence curve, corresponding to the temperature at which half of the protein molecules are folded and half are unfolded. […] Even lower was the stability of MMACHC-R161Q (Tm = 37.1 ± 0.7 °C) (Fig. 2B). The difference in Tm was small but nonetheless significant (p < 0.01). A second difference between the wild-type and mutant proteins was the shape of the unfolding curves, with the unfolding of the mutant protein showing high cooperativity indicating a two-state unfolding mechanism while the unfolding of the wild-type protein stretched over a larger temperature range and comprised two phases (Fig. 2B; also Fig. 3A at 0 μM OHCbl).

[6] = biological target: T4, MMACHC-R161Q; assay: as above; type: binding; settings: for ΔTm max: Tm at 50 μM ligand minus Tm at 0 μM ligand; for ΔTm max / AC50: DSF; for AC50: half-maximal effective ligand concentration for stabilization, 3 μM protein, fit of ΔTm vs ligand concentration
Procedure: as §3, §4

[7] = biological target: T5, His-MMACHC-R161Q; assay: UV-visible absorption spectra, base-on/base-off binding; settings: 5 μM cobalamin, 50 μM protein, pH 7.0; for α/β-Peak: nm
Procedure: […] In order to retain the high amounts of protein necessary for these experiments, the His-tag (wt and R161Q) or GST-tag (wt protein) was left on. Absorption spectrum measurements were carried out using a MOS-250 spectrometer and recorded using Bio-Kine 32 v4.20 software.
as §2

[8] = biological target: T4, MMACHC-R161Q; design: method as in PMID 19700356; settings: recombinant protein, in words; cited from earlier work
[9] = system: MMACHC-G147D; design: method as in PMID 19700356; settings: recombinant protein, in words; cited from earlier work
[10] = biological target: T3, MMACHC-wt; design: method as in PMID 19700356; settings: published Kd; unit printed in b1 only; cited from earlier work
[11] = DSF thermostability of apo protein; type: physicochemical; settings: apo form, His-tag removed, no ligand
Procedure: as §3
Wild-type (MMACHC-wt) and mutant (MMACHC-R161Q) MMACHC were expressed and purified to >95% purity, with His-tag removed, as judged by SDS–PAGE (Fig. 2A). […] As the protein unfolds, the dye, which has a higher fluorescence quantum yield in nonpolar environments than in aqueous media, binds to hydrophobic regions of the protein, causing a large increase in fluorescence [[22,23]]. […]

[12] = Isothermal denaturation (ITD); type: physicochemical; settings: constant 35 °C over 120 min, Sypro orange fluorescence
Procedure: ITD was performed as previously described with minor variations. Samples of both proteins prepared similarly as for DSF (at similar concentrations) were kept at constant temperature of 35 °C while monitoring the fluorescence of Sypro orange at intervals of one minute in a thermocycler (Bio-rad C1000 Thermocycler, CFX96 Real-time system) over 120 min (n = 12 for each protein).
We performed isothermal […] (ITD) to investigate further the difference in stability between the two proteins. ITD has been described as being more sensitive than DSF for detecting small changes in protein stability. ITD measures the unfolding of proteins at a constant temperature, typically chosen as a few degrees below the Tm, using a similar procedure as DSF including the use of Sypro orange as the reporter dye. […] After 120 min the intensity reached approximately half of the amplitude seen for unfolding with DSF (Fig. 2B). […] This difference cannot be explained with the relatively small difference in the Tm. If ITD is performed at a temperature that falls within the range of the unfolding transition a gradual increase in the proportion of unfolded protein molecules, i.e. a constant increase in fluorescence intensity, would still be expected even at temperatures […] the Tm (18).

Row | Molecule | binding conformation (base-on/off) [1] | Base-on/off [2] | α/β-Peak [2] | Base-on/off [3] | α/β-Peak [3] | α/β-Peak [4] | ΔTm max [5] | AC50 [5] | ΔTm max [6] | AC50 [6] | Base-on/off [7] | α/β-Peak [7] | melting temperature (Tm) [11] | unfolding by isothermal denaturation [12] | other results
1 | CC1=C2N=C(C=C3N=C(C(C)=C4[N-]C(C(CC(N)=O)C4(C)CCC(=O)NCC(C)OP(=O)([O-])OC4C(CO)OC(n5cnc6cc(C)c(C)cc65)C4O)C4(C)N=C1C(CCC(N)=O)C4(C)CC(N)=O)C(CCC(N)=O)C3(C)C)C(CCC(N)=O)C2(C)CC(N)=O.[CH2-]C1OC(n2cnc3c(N)ncnc32)C(O)C1O.[Co+3] (centres unmarked) [AdoCbl, 5′-deoxyadenosylcobalamin] | base-off | Off | 472 nm | base-off and Off | 460 nm | 524 nm | 15.5 ± 0.1 °C | 0.9 ± 0.1 µM | 13.2 ± 0.1 °C | 1.1 ± 0.1 µM | Off | 461 nm |  |  | AC50 of R161Q relative to wild-type ([6]; times/fold less effective than with MMACHC-wt): similar
2 | C/C1=C2/[N-][C@H]([C@H](CC(N)=O)[C@@]2(C)CCC(=O)NC[C@@H](C)OP(=O)([O-])O[C@H]2[C@@H](O)[C@@H](n3cnc4cc(C)c(C)cc43)O[C@@H]2CO)[C@]2(C)N=C(/C(C)=C3N=C(/C=C4N=C1[C@@H](CCC(N)=O)C\4(C)C)[C@@H](CCC(N)=O)[C@]\3(C)CC(N)=O)[C@@H](CCC(N)=O)[C@]2(C)CC(N)=O.[Co+3].[OH-] [OHCbl, Hydroxocobalamin] |  | On | 522 nm | base-on and On | 532 nm | 525 nm | 8 °C and 7.9 ± 0.6 °C | 3 µM | 4 °C and 3.7 ± 0.1 °C | 7 µM and 6.6 µM | base-on and On | 535 nm |  |  | cobalamin binding [8]: wild-type affinity; γ-Peak ([2]; wavelength): 355; γ-Peak ([3]; wavelength): 356; γ-Peak ([4]; wavelength): 350 nm; cobalamin binding [9]: unable to bind; γ-Peak ([7]; wavelength): 354; Kd [10]: 6 µM and 5.7 µM
3 | C/C1=C2/[N-][C@H]([C@H](CC(N)=O)[C@@]2(C)CCC(=O)NC[C@H](C)OP(=O)([O-])O[C@H]2[C@@H](O)[C@@H](n3cnc4cc(C)c(C)cc43)O[C@@H]2CO)[C@]2(C)N=C(/C(C)=C3N=C(/C=C4N=C1[C@@H](CCC(N)=O)C\4(C)C)[C@@H](CCC(N)=O)[C@]\3(C)CC(N)=O)[C@@H](CCC(N)=O)[C@]2(C)CC(N)=O.[CH3-].[Co+3] [MeCbl, methylcobalamin] | base-off |  |  |  |  |  | 12.7 ± 0.4 °C | 2.1 ± 0.3 µM | 9.3 ± 0.3 °C | 8 ± 1.6 µM |  |  |  |  | 
4 | C/C1=C2/[N-]C([C@H](CC(N)=O)[C@@]2(C)CCC(=O)NCC(C)O)[C@]2(C)N=C(/C(C)=C3N=C(/C=C4N=C1[C@@H](CCC(N)=O)C\4(C)C)[C@@H](CCC(N)=O)[C@]\3(C)CC(N)=O)[C@@H](CCC(N)=O)[C@]2(C)CC(N)=O.[C-]#N.[C-]#N.[Co] (some centres unmarked) [Cbi, dicyanocobinamide] |  |  |  |  |  |  | 9.8 ± 0.2 °C | 1.3 ± 0.2 µM | 6.8 ± 0.2 °C | 9.1 ± 1.6 µM |  |  |  |  | 
5 | B1 |  |  |  |  |  |  |  |  |  |  |  |  | 39.3 ± 1.0 °C | did not unfold | 
6 | B2 |  |  |  |  |  |  |  |  |  |  |  |  | 37.1 ± 0.7 °C | unfolding | 
